Here are results for four molecules from publication PMC9167584, “Calotropin and corotoxigenin 3-O-glucopyranoside from the desert milkweed Asclepias subulata inhibit the Na^+/K^+-ATPase activity” (PeerJ, 2022).

Several values for one entry are separate records, joined by “and”; a condition that tells them apart may be missing. Equal values may be shown once.

Data set [1] addresses brain porcine Na^+/K^+-ATPase. Put plainly: In vitro inhibitory assay of Na+/K+-ATPase (colorimetric Pi release). Format: biochemical. The note with it: brain porcine enzyme; mean ± SD; triplicate; read-out: Inhibition of Na^+/K^+-ATPase IC50. As for the experimental part: We used the inhibitory assay method described by [Mugpasao et al. (2014)]. The enzymatic activity of Na^+/K^+-ATPase was determined by colorimetric quantification of orthophosphate (Pi) released during the ATP hydrolysis according to the method of [Taussky, Shorr & Kurzmann (1953)]. The inhibition assays were done using commercial brain porcine Na^+/K^+-ATPase. Protein concentration was determined according to the Bradford method ([Bradford, 1976]) using bovine serum albumin as standard. As inhibitors, we used cardenolides ouabain, calotropin, and C3OG. The cardenolide ouabain was used as a reference molecule. The reaction was done in a 96-wells plate, adding 10 μL of Na^+/K^+-ATPase solution (0.5 U/mL) with 4 μL of NaCl/KCl solution (35 mM of KCl and 1.65 M of NaCl), 70 μL of Tris-HCl buffer (30 mM Tris-HCl, 0.5 mM of EDTA and 7.8 mM of MgCl2) at 37 °C and 30 min with 6 μL either dimethyl sulfoxide (DMSO) or test compounds on each well. The range concentrations of inhibitors were 100.0–0.001 μM of ouabain and 1000.0–0.01 μM of calotropin and C3OG. Then, 20 μL of ATP solution 22 mM was added to each well, and the reaction solution was incubated at 37 °C for 15 min.
Next, we added 30 μL of trichloroacetic acid (TCA) at 30% (w/v) to each well to block the reaction. The 96-wells plate was mixed slightly and centrifuged at 3,000 rpm for 15 min. Finally, 50 μL of the supernatant was transferred to another 96-well plate and were coated with 100 μL of Taussky-Shorr solution. The absorbance was read at 660 nm in a microplate reader ThermoScientific Multiskan (Thermo Fisher, Vantaa, Finland) after incubation of 5 min at room temperature, protected from the light. The color intensity was proportional to the release of orthophosphate, indicating ATP hydrolysis and the Na^+/K^+-ATPase activity. The inhibition of the enzymatic activity by cardenolides was managed in the percentage of Na^+/K^+-ATPase activity compared with control. The data of inhibitory Na^+/K^+-ATPase activity were expressed in IC50 and standard deviation. All experiments were performed in triplicate. […]

Data set [2] deals with porcine brain Na^+/K^+-ATPase. The data set can be described thus: Kinetic analysis of Na+/K+-ATPase inhibition (Michaelis-Menten, Lineweaver-Burk). It counts as biochemical. The conditions noted are these: for Type of inhibition: Lineweaver-Burk plot, 0.1 and 1.0 μM inhibitor; for Ki: uncompetitive inhibition model, ATP as substrate. As for the experimental part:
The Michaelis-Menten kinetic parameters Km and Vmax of porcine brain Na^+/K^+-ATPase were determined from the initial velocities by modifying the ATP concentrations from 0.125 to 4.0 mM using the enzymatic standard conditions previously mentioned. Initial rates were recorded for 15 min in intervals of 3 min. The measurements were done in the absence or presence of inhibitors. The concentration of Na^+, K^+, and Mg^2+ ions remained constant. The initial velocity when the A. subulata cardenolides were tested was recorded for 15 min. Kinetic analyses were carried out in the presence or absence of two different concentrations of cardenolides (0.1 and 1.0 μM) to determine the nature of the inhibition of the Na^+/K^+-ATPase. All experiments were performed in triplicate. The experimental data were fitted to the Michaelis-Menten equation by non-linear regression analysis. The type of inhibition was obtained by Lineweaver-Burk double reciprocal plots using GraphPad Prism software version 8 (GraphPad Software Inc., San Diego, CA, USA).

Data set [3] addresses porcine cerebral cortex Na^+/K^+-ATPase. More on the design: method as in Agrawal et al. (2021). The conditions noted are these: porcine cerebral cortex enzyme; ref Agrawal et al. (2021); cited from earlier work.
Data set [4] deals with A549, PC-3, and LS-180. Also noted: method as in Rascón-Valenzuela et al. (2015). The conditions noted are these: human cancer cell lines A549, PC-3, LS-180; ref Rascón-Valenzuela et al. (2015); cited from earlier work.
Data set [5] addresses Na^+/K^+-ATPase. More on the design: method as in Ren et al., 2020. The note with it: reference inhibitor; ref Ren et al., 2020; cited from earlier work.
The mark [6] stands for this setting: in presence of 0.1 μM inhibitor.
The mark [7] stands for this setting: in presence of 1.0 μM inhibitor.

Consider `C[C@@H]1C[C@H](O)[C@]2(O)O[C@@H]3C[C@@]4(C=O)[C@@H](CC[C@@H]5[C@@H]4CC[C@]4(C)[C@@H](C6=CC(=O)OC6)CC[C@]54O)C[C@H]3O[C@@H]2O1` [Calotropin, calotropin], for which the IC50 in data set [1] is 270 ± 60 nM; in data set [3] it was 270 nM. Also, in data set [2], the Type of inhibition entry was “Uncompetitive”. Also, the Vmax in data set [2] (setting [6]) came to 2.17 ± 0.10 μmolPi/mg/min; in data set [2] (setting [7]) it was 0.77 ± 0.10 μmolPi/mg/min. Also, the affinity in data set [2] corresponds to a Ki of 200 ± 30 nM. Besides, in data set [4], the “IC50 (cytotoxicity)” value is “nanomolar order”.
On to `C[C@@H]1O[C@@H](O[C@H]2C[C@@H](O)[C@]3(CO)[C@H]4[C@H](O)C[C@]5(C)[C@@H](C6=CC(=O)OC6)CC[C@]5(O)[C@@H]4CC[C@]3(O)C2)[C@H](O)[C@H](O)[C@H]1O` [Ouabain, ouabain octahydrate, reference compound], for which the IC50 in data set [1] is 120 ± 20 nM. Also, the Type of inhibition entry in data set [2] was “uncompetitive”. Further, the Vmax in data set [2] (setting [6]) was 2.11 ± 0.14 μmolPi/mg/min; in data set [2] (setting [7]), 0.66 ± 0.04 μmolPi/mg/min. Also, the Ki – broadly, a dissociation constant, usually derived from enzyme kinetics or from competition with a known ligand – in data set [2] turned out to be 160 nM.
Take `C[C@H]1O[C@@H](O[C@H]2[C@@H](O)C[C@H](O[C@H]3[C@@H](O)C[C@H](O[C@H]4CC[C@@]5(C)[C@H](CC[C@@H]6[C@@H]5C[C@@H](O)[C@]5(C)[C@@H](C7=CC(=O)OC7)CC[C@]65O)C4)O[C@@H]3C)O[C@@H]2C)C[C@H](O)[C@@H]1O` [digoxin]: the IC50 in data set [5] was 230 nM.
For `C[C@]12CCC3C(CCC4C[C@@H](O[C@@H]5O[C@H](CO)[C@@H](O)[C@H](O)[C@H]5O)CC[C@@]43C=O)[C@@]1(O)CC[C@@H]2C1=CC(=O)OC1` (stereo partly shown) [C3OG, corotoxigenin 3-O-glucopyranoside], the IC50 in data set [1] came to 870 ± 200 nM. The Type of inhibition entry in data set [2] is given as “Uncompetitive”. Also, the Vmax in data set [2] (setting [6]) worked out at 1.47 ± 0.08 μmolPi/mg/min; in data set [2] (setting [7]), 0.80 ± 0.06 μmolPi/mg/min. Besides, the Ki in data set [2] was 500 nM and 520 nM. Besides, the “IC50 (cytotoxicity)” value in data set [4] is “micromolar order”.
